Laboratory results as given in patent US20220162215A1, “COMPOSITIONS AND METHODS OF USING THE SAME FOR TREATMENT OF NEURODEGENERATIVE AND MITOCHONDRIAL DISEASE” (MITOKININ, INC., priority 2019, published 2022).
≈ marks a conversion by molar mass, not a printed value. Read-outs that look alike come from different tables or passages of the source.

Assays:
[1] = Visual inspection of crystallization; type: physicochemical; parameters: key: 1: yes crystals; 0: no crystals; conditions: Tables 5A-5D
Procedure: (§1) Briefly, the Hela MKYP (Mito-Keima/YFP-Parkin) cells were seeded at 10K cells/well. EP/MTK compounds were added at seeding (cells were still in suspension). The cells were incubated with the EP/MTK compounds for 16 hours, then 1 μM FCCP/oligomycin was added for 6 hours. Prior to harvesting, cells were scored by eye under 20× magnification for the presence or absence of crystalline or aggregated compound, or round cells.

[2] = system: HeLa MKYP cells; test: Human mitophagy assay (HeLa MKYP, mtKeima FACS, FCCP/oligomycin); type: cell-based
Procedure: Briefly, HeLa MKYP cells were plated at 10,000 cells/well in 96 well plates along with compounds at various concentrations. Following 16 hrs of incubation, cells were treated with 1 uM FCCP/oligomycin for 6 hours, then analyzed via FACS for the presence of mitochondria in lysosomes (as determined by an emissions spectrum shift from the pH-sensitive mtKeima tag). Examples are shown in FIG. 1 through FIG. 13 below.

[3] = system: HeLa MKYP cells; test: Toxicity / cell death measured by DAPI staining (take-up); type: cell-based; conditions: for Toxicity (% positive for DAPI takeup @ 50 μM): Table 3; for Max cell death at 25 uM compound, 1 uM FO / Cell death at 25 μM (no FO): Table 3 Supplement B
Procedure: H2O2 treatment was performed as a control for cell death as measured by DAPI staining.
Briefly, HeLa MKYP cells were plated at 10,000 cells/well in 96 well plates along with compounds at various concentrations. Following 16 hrs of incubation, cells were treated with 1 uM FCCP/oligomycin for 6 hours, then analyzed via FACS for the presence of mitochondria in lysosomes (as determined by an emissions spectrum shift from the pH-sensitive mtKeima tag).

[4] = system: Hela MKYP (Mito-Keima/YFP-Parkin) cells; test: Inspection of round cells; conditions: Tables 6A-6D
Procedure: as §1

[5] = Solubility in 1× PBS; type: physicochemical
[6] = Homo sapiens, HeLa, Table 3, read-out: Potency at 1 μM F/O toxin* (EC50 of mitophagy activation)
[7] = Homo sapiens, HeLa, Table 3 Supplement B, read-out: Mitophagy EC50 (HeLa mKeima assay)
[8] = Table 3, read-out: Potency at 1 μM F/O toxin* (EC50 of mitophagy activation)

Row | SMILES | EC50 [2, 6] [µM] | Toxicity (% positive for DAPI takeup @ 50 μM) ([3]; 50 μM) [%] | solubility [5] [µM] | Max cell death at 25 uM compound, 1 uM FO [3] [%] | Cell death at 25 μM (no FO) [3] [%] | EC50 [2, 7] [µM] | also measured
1 | CC(Nc1ncnc2[nH]cnc12)c1ccccc1 (stereo not shown) [Compound 71] | 3.5 | 18.2 |  |  |  |  | Visual inspection of crystallization ([1]; 1.6 μM): 0; Visual inspection of crystallization ([1]; 3.1 μM): 0; Visual inspection of crystallization ([1]; 6.3 μM): 0; Visual inspection of crystallization ([1]; 12.5 μM): 0; Visual inspection of crystallization ([1]; 25.0 μM): 0; Visual inspection of crystallization ([1]; 50.0 μM): 0; EC50 ([2]; Homo sapiens, HeLa, Table 3 Supplement A, as measured in Table 3, read-out: Potency (EC50 Max Mitophagy) (μM)*): 2.69 µM; Toxicity (% positive for DAPI take-up at 50 μM)* ([3]; Table 3 Supplement A, 50 μM): 22.24%; Inspection of round cells ([4]; 1.6 μM): 0; Inspection of round cells ([4]; 3.1 μM): 0; Inspection of round cells ([4]; 6.3 μM): 0; Inspection of round cells ([4]; 12.5 μM): 0; Inspection of round cells ([4]; 25.0 μM): 0; Inspection of round cells ([4]; 50.0 μM): 0
2 | O[C@H]1Cc2ccccc2[C@H]1Nc1ncnc2[nH]c(C(F)(F)F)cc12 [Compound 83] | > 50 | 21.2 | 194 (≈ 64.9 µg/mL) | 21.2 | 2.75 |  | Mitophagy EC50 (HeLa mKeima assay) ([2]; Table 3 Supplement B): Minimal activity
3 | O[C@@H]1Cc2ccccc2[C@@H]1Nc1ncnc2[nH]c(C(F)(F)F)cc12 [Compound 84] | 9 | 35.6 | 194 (≈ 64.9 µg/mL) | 35.6 | 5.5 | 9.04 | 
4 | COc1ccc2c(c1)[C@@H](Nc1ncnc3[nH]c(C(F)(F)F)cc13)CCC2 [Compound 86] |  | 3.2 | 1.2 (≈ 0.435 µg/mL) |  |  |  | EC50 [2, 8]: 4 µM; EC50 ([2]; Table 3 Supplement B, listed as EP-0037130, read-out: Mitophagy EC50 (HeLa mKeima assay)): 3.99 µM; Max cell death at 25 uM compound, 1 uM FO ([3]; listed as EP-0037130): 3.18%; Cell death at 25 μM (no FO) ([3]; listed as EP-0037130): 1.18%
5 | COc1ccc2c(c1)[C@@H](Nc1ncnc3[nH]c(C(F)(F)F)cc13)CCC2 [Compound 87] |  | 5.9 | 1.2 (≈ 0.435 µg/mL) |  |  |  | EC50 [2, 8]: 9.5 µM; EC50 ([2]; Table 3 Supplement B, listed as EP-0037131, read-out: Mitophagy EC50 (HeLa mKeima assay)): 9.46 µM; Max cell death at 25 uM compound, 1 uM FO ([3]; listed as EP-0037131): 5.9%; Cell death at 25 μM (no FO) ([3]; listed as EP-0037131): 1.2%
6 | OC1CCc2ccccc2C1Nc1ncnc2[nH]c(C(F)(F)F)cc12 (stereo not shown) [Compound 91] | > 50 | 12.8 | 1 (≈ 0.348 µg/mL) | 12.8 | 3.79 |  | Mitophagy EC50 (HeLa mKeima assay) ([2]; Table 3 Supplement B): Minimal activity
7 | CC(=O)N1CCC(Nc2ncnc3[nH]c(C(F)(F)F)cc23)c2ccccc21 (stereo not shown) [Compound 93] |  | 6.9 | 1.32 (≈ 0.495 µg/mL) | 6.92 | 2.69 | 17.3 | 
8 | OC[C@H]1CCc2ccccc2[C@@H]1Nc1ncnc2[nH]c(C(F)(F)F)cc12 [Compound 95] | 5.5 | 30.9 | 9.07 (≈ 3.29 µg/mL) | 30.87 | 9.83 | 5.55 | 
9 | CO[C@@H]1COc2ccccc2[C@@H]1Nc1ncnc2[nH]c(C(F)(F)F)cc12 [Compound 96] | 1.6 | 12.1 | 23.8 (≈ 8.67 µg/mL) | 12.11 | 3.4 | 1.63 | 
10 | CO[C@@H]1COc2ccccc2[C@H]1Nc1ncnc2[nH]c(C(F)(F)F)cc12 [Compound 97] | 6.3 | 10.6 | 16.4 (≈ 5.97 µg/mL) | 10.645 | 2.61 | 6.32 | 
11 | CO[C@H]1COc2ccccc2[C@@H]1Nc1ncnc2[nH]c(C(F)(F)F)cc12 [Compound 98] |  | 15.9 | 16.3 (≈ 5.94 µg/mL) |  |  |  | EC50 ([2]; Table 3 Supplement B, listed as EP-0037863, read-out: Mitophagy EC50 (HeLa mKeima assay)): 4 µM; Max cell death at 25 uM compound, 1 uM FO ([3]; listed as EP-0037863): 15.865%; Cell death at 25 μM (no FO) ([3]; listed as EP-0037863): 3.66%
12 | CO[C@H]1COc2ccccc2[C@H]1Nc1ncnc2[nH]c(C(F)(F)F)cc12 [Compound 99] | 13.3 | 3.6 | 20.9 (≈ 7.61 µg/mL) | 3.555 | 2.49 | 13.3 | 
13 | C[C@H]1CCc2ccccc2[C@H]1Nc1ncnc2[nH]c(C(F)(F)F)cc12 [Compound 101] |  | 12.0 |  |  |  |  | EC50 [2, 8]: > 50 µM; Mitophagy EC50 (HeLa mKeima assay) ([2]; Table 3 Supplement B): Minimal activity; solubility ([5]; aqueous buffer): 7.79 µM (≈ 2.7 µg/mL); Max cell death at 25 uM compound, 1 uM FO ([3]; listed as EP-0037881): 12%; Cell death at 25 μM (no FO) ([3]; listed as EP-0037881): 6.45%
14 | C[C@@H]1CCc2ccccc2[C@H]1Nc1ncnc2[nH]c(C(F)(F)F)cc12 [Compound 103] | 4.2 | 23.8 | 1 (≈ 0.346 µg/mL) | 23.8 | 17.9 | 4.18 | 
15 | CO[C@H]1COc2ccccc2[C@@H]1Nc1ncnc2[nH]c(C(F)(F)F)cc12 [Compound 104] |  | 7.7 |  |  |  |  | EC50 [2, 8]: 1.5 µM; EC50 ([2]; Table 3 Supplement B, listed as EP-0037962, read-out: Mitophagy EC50 (HeLa mKeima assay)): 1.48 µM; solubility ([5]; aqueous buffer): 1.31 µM (≈ 0.477 µg/mL); Max cell death at 25 uM compound, 1 uM FO ([3]; listed as EP-0037962): 7.67%; Cell death at 25 μM (no FO) ([3]; listed as EP-0037962): 5.15%
16 | CO[C@@H]1CCc2ccccc2[C@H]1Nc1ncnc2[nH]c(C(F)(F)F)cc12 [Compound 105] |  | 18.4 | 1 (≈ 0.362 µg/mL) | 18.4 | 15.3 | 22.1 | 
17 | CN(C)[C@H]1CCc2ccccc2[C@@H]1Nc1ncnc2[nH]c(C(F)(F)F)cc12 [Compound 108] | > 50 | 79.3 | 190 (≈ 71.3 µg/mL) | 79.29 | 4.33 | 0.81 | 
18 | Fc1ccc2c(c1)CCCC2Nc1ncnc2[nH]c(C(F)(F)F)cc12 (stereo not shown) [Compound 109] | > 50 | 30.1 | 1 (≈ 0.35 µg/mL) | 30.1 | 3.27 | 1.06 | 
19 | Oc1ccc2c(c1)CCC[C@H]2Nc1ncnc2[nH]c(C(F)(F)F)cc12 [Compound 110] | 4.4 | 11.0 | 102 (≈ 35.5 µg/mL) | 11 | 3.32 | 4.38 | 
